Assay results published in article PMC9283466, “In silico identification of two peptides with antibacterial activity against multidrug-resistant Staphylococcus aureus” (NPJ Biofilms and Microbiomes, 2022).
In brackets after ≈: the same amount, converted by molar mass.

Columns and labels:
[1] = test system: S. aureus RN4220; experiment: MIC, broth microdilution; format: cell-based, Staphylococcus aureus; settings: Staphylococcus aureus, sensitive, read-out: MIC
Method: (§1) To determine the antimicrobial activity of the new antimicrobial peptides, HG2 and HG4, their minimum inhibitory concentrations (MICs) were determined by broth microdilution method[51] in cation adjusted Mueller Hinton broth (MHB) following the International Organisation for Standardisation (ISO) 20776-1 standard for MIC testing using a final bacterial inoculum of 5 × 10^5 CFU/ml[52]. […] The peptides dissolved in sterile distilled water were added to bacteria culture and incubated overnight at appropriate conditions. The MICs of the peptides and comparator antibiotics were recorded after 18–24 h. The minimum bactericidal concentrations (MBCs) were also determined and were taken as the lowest concentration of the antimicrobial that prevented the growth of bacterial cells after the subculture of cells (from MIC treatment) onto antibiotic-free media.

[2] = test system: K. pneumoniae 518842; experiment: microbe, parasite or virus in culture; format: cell-based, Klebsiella pneumoniae; settings: Klebsiella pneumoniae, 518842
Method: as §1

[3] = test system: K. pneumoniae 526903; experiment: microbe, parasite or virus in culture; format: cell-based, Klebsiella pneumoniae; settings: Klebsiella pneumoniae; K. pneumoniae 526903; sensitive; read-out: MIC
Method: as §1

[4] = test system: K. pneumoniae ATCC 700603; experiment: microbe, parasite or virus in culture; format: cell-based, Klebsiella pneumoniae; settings: Klebsiella pneumoniae, ATCC700603; K. pneumoniae ATCC 700603; SHV-18; read-out: MIC
Method: as §1

[5] = test system: K. pneumoniae NCTC 13442; experiment: microbe, parasite or virus in culture; format: cell-based, Klebsiella pneumoniae; settings: Klebsiella pneumoniae, NCTC13442; K. pneumoniae NCTC 13442; OXA-48; read-out: MIC
Method: as §1

[6] = test system: A. baumannii (IMI, MER resistant; strain ID not given); experiment: microbe, parasite or virus in culture; format: cell-based, Acinetobacter baumannii; settings: Acinetobacter baumannii, A. baumannii, no strain ID, MER, read-out: MIC
Method: as §1

[7] = test system: A. baumannii 515722; experiment: microbe, parasite or virus in culture; format: cell-based, Acinetobacter baumannii; settings: Acinetobacter baumannii; A. baumannii 515722; sensitive; read-out: MIC
Method: as §1

[8] = test system: A. baumannii 515785; experiment: microbe, parasite or virus in culture; format: cell-based, Acinetobacter baumannii; settings: Acinetobacter baumannii, 515785
Method: as §1

[9] = test system: A. baumannii 515908; experiment: microbe, parasite or virus in culture; format: cell-based, Acinetobacter baumannii; settings: Acinetobacter baumannii; A. baumannii 515908; sensitive; read-out: MIC
Method: as §1

[10] = test system: B. cereus; experiment: microbe, parasite or virus in culture; format: cell-based, Bacillus cereus; settings: Bacillus cereus; B. cereus; read-out: MIC
Method: as §1

[11] = test system: P. aeruginosa (CF) AMT0060; experiment: microbe, parasite or virus in culture; format: cell-based, Pseudomonas aeruginosa; settings: Pseudomonas aeruginosa; P. aeruginosa (CF) AMT0060; read-out: MIC
Method: as §1

[12] = test system: P. aeruginosa (CF) C3719; experiment: microbe, parasite or virus in culture; format: cell-based, Pseudomonas aeruginosa; settings: Pseudomonas aeruginosa; P. aeruginosa (CF) C3719; read-out: MIC
Method: as §1

[13] = test system: P. aeruginosa (CF) LES400; experiment: microbe, parasite or virus in culture; format: cell-based, Pseudomonas aeruginosa; settings: Pseudomonas aeruginosa; P. aeruginosa (CF) LES400; read-out: MIC
Method: as §1

[14] = test system: P. aeruginosa PA01; experiment: microbe, parasite or virus in culture; format: cell-based, Pseudomonas aeruginosa; settings: Pseudomonas aeruginosa; P. aeruginosa PA01; read-out: MIC
Method: as §1

[15] = test system: P. aeruginosa; experiment: microbe, parasite or virus in culture; format: cell-based, Pseudomonas aeruginosa; settings: Pseudomonas aeruginosa; P. aeruginosa; Supplementary Table 5; read-out: Minimum inhibitory Concentrations MICs
Method: as §1

[16] = test system: Sal. typhimurium SL1344; experiment: microbe, parasite or virus in culture; format: cell-based, Salmonella enterica serovar Typhimurium; settings: Salmonella enterica; Sal. typhimurium SL1344; read-out: MIC
Method: as §1

[17] = test system: Sal. typhimurium; experiment: microbe, parasite or virus in culture; format: cell-based, Salmonella enterica serovar Typhimurium; settings: Salmonella enterica; Sal. typhimurium; Supplementary Table 5; read-out: Minimum inhibitory Concentrations MICs
Method: as §1

[18] = test system: E. coli K12; experiment: microbe, parasite or virus in culture; format: cell-based, Escherichia coli; settings: Escherichia coli; E. coli K12; read-out: MIC
Method: as §1

[19] = test system: E. coli; experiment: microbe, parasite or virus in culture; format: cell-based, Escherichia coli; settings: Escherichia coli, read-out: Minimum inhibitory Concentrations MICs
Method: as §1

[20] = test system: EMRA-15; experiment: microbe, parasite or virus in culture; format: cell-based, Staphylococcus aureus; settings: Staphylococcus aureus; EMRA-15; Supplementary Table 5; read-out: Minimum inhibitory Concentrations MICs
Method: as §1

[21] = test system: S. aureus EMRSA-15; experiment: microbe, parasite or virus in culture; format: cell-based, Staphylococcus aureus; settings: Staphylococcus aureus; S. aureus EMRSA-15; resistances MRSA, Cip; read-out: MIC
Method: as §1

[22] = test system: S. aureus; experiment: microbe, parasite or virus in culture; format: cell-based, Staphylococcus aureus; settings: Staphylococcus aureus, read-out: Minimum inhibitory Concentrations MICs
Method: as §1

[23] = test system: Ent. faecalis JH2-2; experiment: microbe, parasite or virus in culture; format: cell-based, Enterococcus faecalis; settings: Enterococcus faecalis, JH22; Ent. faecalis JH2-2; read-out: MIC
Method: as §1

[24] = test system: Ent. faecalis; experiment: microbe, parasite or virus in culture; format: cell-based, Enterococcus faecalis; settings: Enterococcus faecalis; Ent. faecalis; Supplementary Table 5; read-out: Minimum inhibitory Concentrations MICs
Method: as §1

[25] = test system: L. monocytogenes NCTC 11994; experiment: microbe, parasite or virus in culture; format: cell-based, Listeria monocytogenes; settings: Listeria monocytogenes, NCTC11994; L. monocytogenes NCTC 11994; read-out: MIC
Method: as §1

[26] = test system: List. monocytogenes; experiment: microbe, parasite or virus in culture; format: cell-based, Listeria monocytogenes; settings: Listeria monocytogenes; List. monocytogenes; Supplementary Table 5; read-out: Minimum inhibitory Concentrations MICs
Method: as §1

O=C(O)c1cn(C2CC2)c2cc(N3CCNCC3)c(F)cc2c1=O [Cip, ciprofloxacin, reference compound]
MIC [1]: > 256 µg/mL | MIC [2]: > 128 µg/mL | MIC [3]: 0.03 µg/mL (≈ 0.0905 µM) | MIC [4]: 0.25 µg/mL (≈ 0.754 µM) | MIC [5]: 64 µg/mL (≈ 193 µM) | MIC [6]: 16 µg/mL (≈ 48.3 µM) | MIC [7]: 16 µg/mL (≈ 48.3 µM) | MIC [8]: > 128 µg/mL | MIC [9]: 16 µg/mL (≈ 48.3 µM) | MIC [10]: 0.015 µg/mL (≈ 0.0453 µM) | MIC [11]: 0.12 µg/mL (≈ 0.362 µM) | MIC [12]: 4 µg/mL (≈ 12.1 µM) | MIC [13]: 4 µg/mL (≈ 12.1 µM) | MIC [14]: 0.5 µg/mL (≈ 1.51 µM) | MIC [15]: 0.49 µg/mL (≈ 1.48 µM) | MIC [16]: 0.12 µg/mL (≈ 0.362 µM) | MIC [17]: 0.12 µg/mL (≈ 0.362 µM) | MIC [18]: 0.06 µg/mL (≈ 0.181 µM) | MIC [19]: 0.06 µg/mL (≈ 0.181 µM) | MIC [20]: > 250 µg/mL | MIC [21]: > 256 µg/mL | MIC [22]: > 250 µg/mL | MIC [23]: 64 µg/mL (≈ 193 µM) | MIC [24]: 62.5 µg/mL (≈ 189 µM) | MIC [25]: 64 µg/mL (≈ 193 µM) | MIC [26]: 62.5 µg/mL (≈ 189 µM)
